Data: PubChem BioAssay AID1963850 (Molecular Pharmacology Branch, DTP, NCI, 2024)
“And” between values parts separate entries of the source, which are not always exact repeats. Equal entries are not always repeated.

System: 192522-019-R-J2-PDC complex tumor spheroid viability
Assay: Anticancer human tumor 192522-019-R-J2-PDC patient-derived colon adenocarcinoma cell line growth inhibition [POLQ]
Settings: for viability, T/C: stronger effect = lower value
Method: Multicellular complex tumor spheroid response to Polymerase (POL) inhibitors (novobiocin, ART-558, RP6685) in combination with a variety of drugs and investigational agents in selected tumor cell lines
The POL inhibitors (novobiocin, ART-558, and RP6685) were evaluated both individually and in combination with standard of care and investigational anticancer small molecules within a complex spheroid model of solid tumors. . Complex spheroids include a stromal component modeled by human endothelial cells (HUVEC) and fibroblasts modeled by human mesenchymal stem cells (MSCs). The concentration ranges selected for each drug and investigational agent were based upon clinically achievable concentrations if the clinical Cmax of the agent was known.
Compounds. The drugs and investigational agents: novobiocin (NSC847541), ART-558 (NSC835418), RP-6685 (NSC848927), peposertib (NSC802822), ceralasertib (NSC780249), elimusertib (NSC800525), camonsertib (NSC841442), AZD-1390 (NSC803789), olaparib (NSC753686), talazoparib (NSC767125), rucaparib (NSC756644), sotorasib (NSC818433), MRTX-1133 (NSC836407), SN-38 (NSC673596), topotecan (NSC609699), epotoside (NSC141540), doxorubicin (NSC123127), gemcitabine (NSC613327), 5-fluorouracil (NSC19893), paclitaxel (NSC125973), vemurafenib (NSC761431), MSA-2 (NSC828583), SN-011 (NSC837082), adavosertib (NSC754352), prexasertib (NSC758257), carboplatin (NSC241240) and oxaliplatin (NSC266046), were obtained from the National Cancer Institute (NCI) Developmental Therapeutics Program Chemical Repository (21). The FDA-approved anticancer drug set is available from the Developmental Therapeutics Program at https://dtp.cancer.gov/organization/dscb/obtaining/. […] The stock solutions were prepared in dimethyl sulfoxide (DMSO, Sigma-Aldrich, St. Louis, MO, cat. D2650), except for the platinum compounds which were prepared in saline (Quality Biological, Gaithersburg, MD, cat. 114-055-101), at 800-fold the tested concentration and stored at -70 degrees C prior to their use. All drugs and investigational agents were tested over a range starting from a high concentration at or near the clinical Cmax and decreasing in half-log increments. If the clinical Cmax for an agent had not been determined, the highest concentration tested was 10 microM, except for SN-38, which was tested at a high concentration of 1 microM.
Cell Culture. All cells were maintained in an incubator at 37 degrees C and 5% CO2 with 95% humidity. The PDC lines were cultured according to standard operating procedures established by the NCI PDMR (https://pdmr.cancer.gov). Table 3 of the manuscript, lists the cell lines along with the number of the three cell types plated to form the mct-spheroids and media for tumor cell growth. After thawing, all PDC lines, except 997537-175-T-J1-PDC and 415267-285-R-J2-PDC, were cultured in Matrigel-coated flasks prepared with a working solution of 1X Ham's F-12 nutrient mix, without supplementation (Thermo Fisher Scientific, cat. 11765054), 100 U/mL penicillin-streptomycin (Thermo Fisher Scientific, cat. 15140122), and 2.5% Matrigel (Corning Inc., Corning, NY, cat. 354248) for the first three passages. The two PDC lines 997537-175-T-J1-PDC and 415267-285-R-J2-PDC were cultured on uncoated flasks. The 857933-349-R-J2-PDC line was cultured in 6C/Colon 1B media containing advanced DMEM/F-12 (Thermo Fisher Scientific, cat. 12634028), 10 mM HEPES (Thermo Fisher Scientific, cat. 15630080), 1X GlutaMAX supplement (Thermo Fisher Scientific, cat. 35050061), 0.1 mg/mL primocin (InvivoGen, San Diego, CA, cat. ant-pm-2), 10% defined fetal bovine serum, heat inactivated (HyClone Laboratories Inc., Logan, UT, cat. SH30070.03HI), 50% L-WRN conditioned media (ATCC, cat. CRL-3276), 1.25 mM N-Acetyl-L-cysteine (Sigma-Aldrich, cat. A9165), 10 mM nicotinamide (Sigma-Aldrich, cat. N0636), 1X B-27 supplement (Thermo Fisher Scientific, cat. 17504044), 1X N-2 supplement (Thermo Fisher Scientific, cat. […]
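Further: spheroids exposed to drugs for seven days before reading.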
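Wherever viability, T/C is given: 100% = DMSO vehicle control viability in luminescence.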

CNCc1ccc(-c2[nH]c3cc(F)cc4c3c2CCNC4=O)cc1
viability, T/C (compound 0.0316 µM): 104% and 103% and 93%
viability, T/C (compound 0.1 µM): 98.4% and 101% and 86%
viability, T/C (compound 0.316 µM): 104% and 102% and 109%
viability, T/C (compound 1 µM): 107% and 120% and 102%
viability, T/C (compound 3.16 µM): 100% and 108% and 105%
viability, T/C (compound 10 µM): 96.8% and 103% and 92.1%
IC50 (curve of compound): > 10 µM

COC1C(OC(N)=O)C(O)C(Oc2ccc3c(O)c(NC(=O)c4ccc(O)c(CC=C(C)C)c4)c(=O)oc3c2C)OC1(C)C (configuration not stated)
viability, T/C (compound 0.0316 µM): 108% [middle of 13 runs]
viability, T/C (compound 0.1 µM): 106% [middle of 13 runs]
viability, T/C (compound 0.316 µM): 106% [middle of 13 runs]
viability, T/C (compound 1 µM): 103% [middle of 13 runs]
viability, T/C (compound 3.16 µM): 101% [middle of 13 runs]
viability, T/C (compound 10 µM): 106% [middle of 13 runs]
IC50 (compound alone, run of 10/31/2023): > 10 µM

COc1cc(C2c3cc4c(cc3C(OC3OC5COC(C)OC5C(O)C3O)C3COC(=O)C23)OCO4)cc(OC)c1O (configuration not stated)
viability, T/C (compound 0.0316 µM): 101% and 100% and 97.1%
viability, T/C (compound 0.1 µM): 96.5% and 97% and 97.3%
viability, T/C (compound 1 µM): 86.6% and 86% and 84.8%
viability, T/C (compound 3.16 µM): 59.9% (2×) and 65.3%
viability, T/C (compound 10 µM): 75.5% and 79.4% and 55.1%
IC50 (curve of compound): > 10 µM

COc1cc2cc(C(=O)CCC(=O)O)sc2cc1OC
viability, T/C (compound 0.0316 µM): 103% and 106% and 111%
viability, T/C (compound 0.1 µM): 102% and 92.6% and 99.8%
viability, T/C (compound 0.316 µM): 90.1% and 107% and 96.3%
viability, T/C (compound 1 µM): 96.8% and 99.9% and 102%
viability, T/C (compound 3.16 µM): 115% and 103% and 100%
viability, T/C (compound 10 µM): 100% and 98.1% and 91.6%
IC50 (curve of compound): > 10 µM

COc1ccc([C@@H](O)c2cc(-c3ncnc4cc(N5CCOCC5)ccc34)c(F)cc2Cl)nn1
viability, T/C (compound 0.0316 µM): 105% and 101% and 113%
viability, T/C (compound 0.1 µM): 93.6% and 91.3% and 99.9%
viability, T/C (compound 0.316 µM): 100% and 94.7% and 106%
viability, T/C (compound 1 µM): 77.6% and 101% and 102%
viability, T/C (compound 3.16 µM): 83% and 75.1% and 92.5%
viability, T/C (compound 10 µM): 54.5% and 64.9% and 65.9%
IC50 (curve of compound): > 10 µM

COc1cccc(OCCCN)c1-c1cc(Nc2cnc(C#N)cn2)n[nH]1
viability, T/C (compound 0.00316 µM): 96.6% and 99.2% and 101%
viability, T/C (compound 0.0316 µM): 33% and 47.4% and 44%
viability, T/C (compound 0.1 µM): 32.7% and 40.1% and 36.7%
viability, T/C (compound 0.316 µM): 32.7% and 38.2% and 35.7%
viability, T/C (compound 1 µM): 28.8% and 37.6% and 34.5%
IC50 (curve of compound): 0.0153 µM and 0.0294 µM and 0.0264 µM

COc1cccc2c1C(=O)c1c(O)c3c(c(O)c1C2=O)CC(O)(C(=O)CO)CC3OC1CC(N)C(O)C(C)O1 (configuration not stated)
viability, T/C (compound 0.0316 µM): 103% and 101% and 100%
viability, T/C (compound 0.1 µM): 82.1% and 80.8% and 80.6%
viability, T/C (compound 0.316 µM): 72% and 89.1% and 66.9%
viability, T/C (compound 1 µM): 89.1% and 74.3% and 83.1%
viability, T/C (compound 3.16 µM): 69.1% and 72.3% and 65.9%
viability, T/C (compound 10 µM): 59.9% and 62.4% and 48.1%
IC50 (curve of compound): > 10 µM
